Data taken from US4094964A, “Clonidine assay” (Hoffmann-La Roche Inc., priority 1977, dated 1978).

tested on: antibody in the antiserum of rabbit immunized by the clonidine bovine serum albumin immunogen; experiment: Radioimmunoassay specificity: competition with clonidine-14C for binding to the antiserum; details: 100 ng to 500 pg of competitor, antiserum 1:50, about 18 hours at 4° C., pH 7.4
Description: The antiserum of Example 3 as used for the radioimmunoassay was diluted with normal rabbit serum which was diluted with phosphate-buffered saline, pH 7.4, at 1:10-dilution. To determine the antibody titre of antiserum, 0.1 ml of various dilutions of the antiserum was incubated in an assay tube (10 × 75 mm) with 2 ng of clonidine ^14 C approximately 3,000 cpm at 4° C. for about 18 hours. The volume was adjusted to 0.5 ml with phosphate-buffered saline, pH 7.4, which is the optimal pH for the assay. The antibody bound clonidine was separated from free clonidine by the addition of saturated ammonium sulfate which was adjusted to pH 7.4 with ammonium hydroxide as described by Farr, J. Infect. Dis 103, 239 (1958). After 2 washings with 50% saturated ammonium sulfate, the precipitate was dissolved in 0.5 ml of water. The content of the tube was transferred to counting vial and the tube was then washed 4 times with 3 ml of Riafluor. The 12 ml washings were all collected in the vial. The radioactivity was then counted with a Beckman liquid scintillation counter. The dilution of the antiserum chosen for further studies was 1:50.
Appropriate volume of phosphate-buffered saline, pH 7.4 was added to all tubes containing 0.1 ml of the antiserum to make a final incubation volume of 0.5 ml. To the tubes were added 100 ul of clonidine-^14 C and various quantities ranging from 100 ng to 500 pg of clonidine, 2-(2,6-dichloro-4-hydroxyanilino)-2-imidazoline (4-hydroxyclonidine), 2-(2,6-dichloro-4-sulfonamidoanilino)-2-imidazoline (4-sulfonamidoclonidine),2-(2-chloro-3-methylanilino)-2-imidazoline, 2-(2-chloro-4-methylanilino)-2-imidazoline, 2-(2-chloro-6-methylanilino)-2-imidazoline, 2-anilino-2-imidazoline, 2-(2,6-dichloro-anilino)-2-methyl-2-imidazoline (2-methylclonidine), 2-(2,6-dichloroanilino)-1-methyl-2-imidazoline (1-methylclonidine), 1-acetamido-2-(2,6-dichloroanilino)-2-imidazoline (1-acetamidoclonidine), 2-(2,6-dichloroanilino)-2-pyrroline, 2-(2,6-dichloroanilino)-2-oxazoline, 2-(2,6-dichloroanilino)-2-benzimidazole, 2-(2,6-dichloroanilino)-1,3-dimethylquanidine, 2-(2,6-dichloroanilino)-1-methylguanidine, 2-(2,6-dichloroanilino)quanidine, aniline or 2-(2,6-dichlorobenzyl)-2-imidazoline. The tubes were then incubated for about 18 hours at 4° C. followed by precipitation with ammonium sulfate.
The specificity of the antibody in the antiserum of rabbit immunized by the clonidine bovine serum albumin immunogen was determined by incubating the antiserum with 2-(2,6-dichloro-4-hydroxyanilino)-2-imidazoline (4-hydroxyclonidine), 2-(2,6-dichloro-4-sulfonamidoanilino)-2-imidazoline (4-sulfonamidoclonidine), 2-(2-chloro-3-methylanilino)-2-imidazoline, 2-(2-chloro-4-methylanilino)-2-imidazoline, 2-(2-chloro-6-methylanilino)-2-imidazoline, 2-anilino-2-imidazoline, 2-(2,6-dichloroanilino)-2-methyl-2-imidazoline (2-methylclonidine), 2-(2,6-dichloroanilino)-1-methyl-2-imidazoline (1-methylclonidine), 1-acetamido-2-(2,6-dichloroanilino)-2-imidazoline (1-acetamidoclonidine), 2-(2,6-dichloroanilino)-2-pyrroline, 2-(2,6-dichloroanilino)-2-oxazoline, 2-(2,6-dichloroanilino)-2-benzimidazole, 2-(2,6-dichloroanilino)-1,3-dimethylguanidine, 2-(2,6-dichloroanilino)-1-methylguanidine, 2-(2,6-dichloroanilino)guanidine, aniline or 2-(2,6-dichlorobenzyl)-2-imidazoline in the presence of labelled clonidine.

| Compound | recognition by the antibody in the presence of labelled clonidine |
| --- | --- |
| 2-(2,6-dichloroanilino)-2-methyl-2-imidazoline | failed to recognize |
| 2-(2,6-dichloroanilino)-1,3-dimethylguanidine | failed to recognize |
| c1ccc(NC2=NCCN2)cc1 [2-anilino-2-imidazoline] | failed to recognize |
| Clc1cccc(Cl)c1NC1=NCCO1 [2-(2,6-dichloro-anilino)-2-oxazoline, 2-(2,6-dichloroanilino)-2-oxazoline] | failed to recognize |
| NS(=O)(=O)c1cc(Cl)c(NC2=NCCN2)c(Cl)c1 [2-(2,6-dichloro-4-sulfonamidoanilino)-2-imidazoline] | recognized |
| 2-(2,6-dichloroanilino)guanidine [2-(2,6-dichloro-anilino)guanidine] | failed to recognize |
| CC(=O)NN1CCN=C1Nc1c(Cl)cccc1Cl [1-acetamido-2-(2,6-dichloroanilino)-2-imidazoline] | recognized |
| Cc1cccc(Cl)c1NC1=NCCN1 [2-(2-chloro-6-methylanilino)-2-imidazoline] | recognized |
| CN1CCN=C1Nc1c(Cl)cccc1Cl [2-(2,6-dichloroanilino)-1-methyl-2-imidazoline] | failed to recognize |
| Oc1cc(Cl)c(NC2=NCCN2)c(Cl)c1 [2-(2,6-dichloro-4-hydroxyanilino)-2-imidazoline] | recognized |
| Cc1cccc(NC2=NCCN2)c1Cl [2-(2-chloro-3-methylanilino)-2-imidazoline] | recognized |
| Nc1ccccc1 [aniline] | failed to recognize |
| Cc1ccc(NC2=NCCN2)c(Cl)c1 [2-(2-chloro-4-methylanilino)-2-imidazoline] | recognized |
| Clc1cccc(Cl)c1CC1=NCCN1 [2-(2,6-dichlorobenzyl)-2-imidazoline] | failed to recognize |

same assay, conditions: antiserum 1:50, about 18 hours at 4° C., pH 7.4

| Compound | concentration required relative to that of clonidine (cross-reactivity) |
| --- | --- |
| 2-(2,6-dichloroanilino)-1-methylguanidine | about 40 times that of clonidine |
| Clc1cccc(Cl)c1NC1=CCCN1 [2-(2,6-dichloroanilino)-2-pyrroline] | about 40 times that of clonidine |

same assay, conditions: read-out: concentration producing a 50% inhibition of binding of clonidine-14C to the antibody; antiserum 1:50, about 18 hours at 4° C., pH 7.4, ammonium sulfate precipitation

| Compound | IC50 |
| --- | --- |
| Clc1cccc(Cl)c1N=C1NCCN1 [Clonidine] | 25 nM |
